Read-outs that look alike come from different tables or passages of the source.
Tests used:
P. falciparum 3D7 or K1 = assay: Asexual Blood Stage Imaging Assay (DAPI) V. Avery; type: cell-based; details: Plasmodium falciparum
P. falciparum FCR3 = assay: FCR3 SYBR Green I assay Horii; type: cell-based; details: Plasmodium falciparum, FCR3, 72 h; read-out: P. falciparum FCR3 asexual blood stage IC50 Horii
Method: Column T: Horii group (data presented first in this paper). IC50 against asexual blood stage P. falciparum FCR3. Methods: For measurement of anti-Plasmodium activities, P. falciparum FCR3 strain was cultured in the RPMI 1640 medium supplemented with 10% human type A serum from in-house volunteers at 37°C, 5% O2 and 5% CO2 (0.5% parasitemia and 2% hematocrit) for 72 h in the presence of the compounds (DMSO final concentration, 0.25%). The growth inhibition of P. falciparum was determined using a SYBR Green I assay. Lysis buffer (20 mM Tris (pH 7.5), 5 mM EDTA, 0.008% (w/v) saponin and 0.08% (v/v) Triton X-100) containing SYBR Green I was added to each well and incubated at room temperature and dark condition for 1-5 hours. After the incubation, amounts of parasite DNA were measured as fluorescence at 485 nm of excitation and 530 nm of emission. An unpublished antimalarial compound was used as positive control in the assay.

[1] = system: P. falciparum 3D7, HB3, Dd2, W2, K1, FCR3; assay: Asexual EC50 image assay, six strains, Ayong; type: cell-based; details: Plasmodium falciparum
P. falciparum HB3 = assay: Stage-specificity / mitochondrial integrity image assay Ayong; type: cell-based; details: 10µM
[2] = system: P. falciparum NF54Pfs16 gametocytes stage I-III; details: ref [61]; read-out: gametocyte early stage (I-III) luciferase EC50; cited from earlier work
[3] = system: P. falciparum NF54Pfs16 gametocytes stage IV-V; details: cited from earlier work
[4] = system: P. falciparum NF54 GFP-Pfs16 gametocytes stage I-III; details: ref [64]; read-out: gametocyte early stage (I-III) GFP-MTR EC50; cited from earlier work
[5] = system: P. falciparum NF54 GFP-Pfs16 gametocytes stage IV-V; details: ref [64]; read-out: gametocyte late stage (IV-V) GFP-MTR EC50; cited from earlier work
T. b. brucei Squib 427 = assay: T. b. brucei growth Maes; type: cell-based, Trypanosoma brucei brucei; details: non-toxic, positive in all T. brucei screens
[6] = system: Saccharomyces cerevisiae strain WC081; assay: Yeast disc diffusion in combination with artemisinin; type: cell-based; details: 10 µL of 1 mM on disc, 0.2 µM artemisinin, read-out: larger zone size with artemisinin (SCG+artemisinin minus SCG)
Source text: Yeast screening for enhanced drug effects in combination with artemisinin, Jensen group (data presented first in this paper). […] Yeast (S. cerevisiae) was used as a proxy for P. falciparum, because the killing of S. cerevisiae and P. falciparum appear to have similarities. Saccharomyces cerevisiae strain WC081 (Mat a, leu2∆0, lys2∆0, ura3∆0, his3∆1, pdr1∆::HIS3, pdr3∆::kanMX4) was utilized and was originally derived from strain BY4742. Regulators of Multi-drug resistance transporters have been deleted from this strain to enhance the toxicity of compounds. Assay utilized the disc diffusion method with the observance of a clear zone indicating inhibition of growth. Synthetic complete medium containing 3% glycerol as a carbon source (SCG) was used in each assay. 10 µL of each compound at 1 mM was added to a paper disc which was placed on SCG and SCG^+artemisinin (0.2 µM) plates seeded with 10e6 yeast cells. Plates were incubated at 30 °C for 5 days and clear zones were measured. Compounds that produced a larger clear zone in the presence of artemisinin were considered to have an additive interaction with artemisinin. Results are reported as diameter of clear zone on SCG^+artemisinin plates - diameter of clear zone on SCG plates without artemisinin.

[7] = system: P. falciparum 3D7 trophozoites; assay: Metabolomic fingerprint profiling LC-MS; type: cell-based, Plasmodium falciparum; set-up: UDP-D-glucose / ADP-D-glucose: unit not given here
P. falciparum = assay: EC50 listed in S2 Table Metabolomics (used to set the concentration tested); type: cell-based; details: Plasmodium falciparum; EC50 used for Factor_XEC50 in metabolomics; read-out: EC50_nM
Atg8-Atg3 = system: Atg8-Atg3; set-up: method as in ref [38] (a number printed in a supplementary file, which may have a reference list of its own: not looked up in the article's list); details: ref [38]; cited from earlier work
P. falciparum Dd2 = assay: Malaria Sybr Green I Fluorescence assay Dd2 Horrocks; type: cell-based; details: Plasmodium falciparum, DD2, 48 h; read-out: P. falciparum Dd2 asexual blood stage EC50 Horrocks
Method: Column S: Horrocks group (data presented first in this paper). Asexual Dd2 inhibition of growth (IC50s): IC50 for the Dd2 clone of Plasmodium falciparum were determined using the Malaria Sybr Green I Fluorescence assay. Drug assays were initiated using a 2% trophozoite stage parasitaemia and 2% hematocrit and fluorescence measured after 48 h as fully described in Hasenkamp et al.[53]. Log dose-response curves were plotted in GraphPad Prism (v5.0). The controls for Dd2 using our 48hr Sybr Green I assay were (rounded to nearest nM): Chloroquine 209nM, Mefloquine 11nM, Quinine 246nM, Dihydroartemisinin 4nM, Artemether 10nM, Atovaquone 3nM.

P. falciparum 3D7 = assay: [3H]-hypoxanthine growth inhibition, modified HCO3- or O2; type: cell-based; details: for IC50: Plasmodium falciparum
[8] = read-out: P. falciparum 3D7 asexual blood stage EC50 (Image) V. Avery
[9] = read-out: P. falciparum K1 asexual blood stage EC50 (Image) V. Avery
[10] = metabolite level change after treatment

C[C@@H]1CC[C@H]2[C@@H](C)C(=O)O[C@@H]3O[C@@]4(C)CC[C@@H]1[C@]32OO4 [Artemisinin, reference compound]
EC50 (P. falciparum 3D7 or K1; [8]): 1 nM
EC50 (P. falciparum 3D7 or K1; [9]): 1 nM
IC50 (P. falciparum FCR3): 47 nM
EC50 ([1]; read-out: P. falciparum 3D7 asexual blood stage EC50 (Image) Ayong): 11.7 ± 1.4 nM
EC50 ([1]; read-out: P. falciparum Dd2 asexual blood stage EC50 (Image) Ayong): 5.3 ± 1.2 nM
EC50 ([1]; read-out: P. falciparum FCR3 asexual blood stage EC50 (Image) Ayong): 5 ± 0.4 nM
EC50 ([1]; read-out: P. falciparum HB3 asexual blood stage EC50 (Image) Ayong): 8.6 ± 1.2 nM
EC50 ([1]; read-out: P. falciparum K1 asexual blood stage EC50 (Image) Ayong): 3.5 ± 0.4 nM
EC50 ([1]; read-out: P. falciparum W2 asexual blood stage EC50 (Image) Ayong): 5.7 ± 0.5 nM
Effects on asexual life cycle progression (treatment at ER, LR, T, S; merozoites; mitochondrial integrity) (P. falciparum HB3): LR-X-S-X-o-o
EC50 [2]: 13 nM
EC50 ([3]; ref [62], read-out: gametocyte late stage (IV-V) luciferase EC50): 26 nM
EC50 [4]: 1 nM
EC50 [5]: 5 nM

CN(C)CCCNCc1ccc(-c2ccc(F)c(Cl)c2)o1 [MMV020505]
Selectivity Index T. brucei screens (T. b. brucei Squib 427): > 10

CSc1ccccc1C(=O)Nc1nc(-c2ccccn2)cs1 [MMV001246]
zone of inhibition at 1000 µM [6]: 3 mm
Acetyllysine ([7]; S2 Table Metabolomics, metabolite Acetyllysine): 0.4532
N-acetyl-L-ornithine ([7]; S2 Table Metabolomics, metabolite N-acetyl-L-ornithine): 0.4087
N-carbamoyl-L-aspartate ([7]; S2 Table Metabolomics, metabolite N-carbamoyl-L-aspartate): 0.8167
NADPH ([7]; S2 Table Metabolomics, metabolite NADPH): -0.6152
dAMP ([7]; S2 Table Metabolomics, metabolite dAMP): 0.5623
dCMP ([7]; S2 Table Metabolomics, metabolite dCMP): 1.316
dTDP ([7]; S2 Table Metabolomics, metabolite dTDP): 1.003
dTMP ([7]; S2 Table Metabolomics, metabolite dTMP): 1.155
dTTP ([7]; S2 Table Metabolomics, metabolite dTTP): 0.605
dihydroorotate ([7]; S2 Table Metabolomics, metabolite dihydroorotate): 0.8484
orotate ([7]; S2 Table Metabolomics, metabolite orotate): -0.04882
DLH ([7]; S2 Table Metabolomics, peptide DLH): -0.1638
DLS/SDL/SID ([7]; S2 Table Metabolomics, peptide DLS/SDL/SID): -0.1191
PD ([7]; S2 Table Metabolomics, peptide PD): 1.085
PEE ([7]; S2 Table Metabolomics, peptide PEE): 0.2734
PVNF ([7]; S2 Table Metabolomics, peptide PVNF): -0.2587
3-phosphoglycerate ([7]; metabolite 3-phosphoglycerate, S2 Table Metabolomics): -0.3067
ADP-D-glucose ([7]; metabolite ADP-D-glucose, S2 Table Metabolomics): 0.2637
ATP ([7]; metabolite ATP, S2 Table Metabolomics): -0.316
CDP ([7]; metabolite CDP, S2 Table Metabolomics, change in metabolite level after compound treatment): 1.161
D-sedoheptulose-1/7-phosphate ([7]; metabolite D-sedoheptulose-1/7-phosphate, S2 Table Metabolomics, change in metabolite level after compound treatment): 0.9582
FAD ([7]; metabolite FAD, S2 Table Metabolomics): -0.06449
GMP ([7]; metabolite GMP, S2 Table Metabolomics, change in metabolite level after compound treatment): -0.2602
NAD+ ([7]; metabolite NAD+, S2 Table Metabolomics): 0.05063
NADP+ ([7]; metabolite NADP+, S2 Table Metabolomics): 0.1259
Octoluse Bisphosphate ([7]; metabolite Octoluse Bisphosphate, S2 Table Metabolomics, change in metabolite level after compound treatment): -0.02993
Pyroglutamic acid ([7]; metabolite Pyroglutamic acid, S2 Table Metabolomics): -0.6363
UDP-D-glucose ([7]; metabolite UDP-D-glucose, S2 Table Metabolomics): 0.1597
UDP-D-glucuronate ([7]; metabolite UDP-D-glucuronate, S2 Table Metabolomics): 0.09079
UDP-N-acetyl-glucosamine ([7]; metabolite UDP-N-acetyl-glucosamine, S2 Table Metabolomics): 0.2113
UDP ([7]; metabolite UDP, S2 Table Metabolomics, change in metabolite level after compound treatment): 1.27
UMP ([7]; metabolite UMP, S2 Table Metabolomics, change in metabolite level after compound treatment): -0.2249
UTP ([7]; metabolite UTP, S2 Table Metabolomics, change in metabolite level after compound treatment): 0.2071
a-ketoglutarate ([7]; metabolite a-ketoglutarate, S2 Table Metabolomics): -0.3343
citrate/isocitrate ([7]; metabolite citrate/isocitrate, S2 Table Metabolomics, change in metabolite level after compound treatment): 0.6139
cytidine ([7]; metabolite cytidine, S2 Table Metabolomics): -0.1132
dATP ([7]; metabolite dATP, S2 Table Metabolomics): -0.2342
dGMP/AMP ([7]; metabolite dGMP/AMP, S2 Table Metabolomics, change in metabolite level after compound treatment): 0.5523
fumarate ([7]; metabolite fumarate, S2 Table Metabolomics, change in metabolite level after compound treatment): 0.07419
glucose-1/6-phosphate ([7]; metabolite glucose-1/6-phosphate, S2 Table Metabolomics, change in metabolite level after compound treatment): 0.3611
glycerate ([7]; metabolite glycerate, S2 Table Metabolomics, change in metabolite level after compound treatment): -0.4138
guanine ([7]; metabolite guanine, S2 Table Metabolomics, change in metabolite level after compound treatment): 0.2842
guanosine ([7]; metabolite guanosine, S2 Table Metabolomics, change in metabolite level after compound treatment): 0.03562
hypoxanthine ([7]; metabolite hypoxanthine, S2 Table Metabolomics): -0.2148
indole ([7]; metabolite indole, S2 Table Metabolomics): -0.09781
inosine ([7]; metabolite inosine, S2 Table Metabolomics, change in metabolite level after compound treatment): -0.005486
2_3-Diphosphoglyceric acid [7, 10]: 0.509
4-phosphopantothenate [7, 10]: 0.08862
6-phospho-D-gluconate [7, 10]: 0.2643
FMN [7, 10]: 0.1616
IMP [7, 10]: 0.3566
Pyrophosphate [7, 10]: 0.4487
Sedoheptoluse bisphosphate [7, 10]: -0.09548
cyclic-AMP [7, 10]: -0.2042
glutathione disulfide [7, 10]: 0.1188
lactate [7, 10]: -0.259
myo-inositol [7, 10]: -0.2589
nicotinate ([7]; metabolite nicotinate, S2 Table Metabolomics): -0.09283
ornithine ([7]; metabolite ornithine, S2 Table Metabolomics): 0.2998
phosphoenolpyruvate ([7]; metabolite phosphoenolpyruvate, S2 Table Metabolomics): -0.3081
pyruvate ([7]; metabolite pyruvate, S2 Table Metabolomics, change in metabolite level after compound treatment): -0.1972
ribose-phosphate ([7]; metabolite ribose-phosphate, S2 Table Metabolomics): -0.4595
sarcosine/alanine ([7]; metabolite sarcosine/alanine, S2 Table Metabolomics, change in metabolite level after compound treatment): 0.1583
sn-glycerol-3-phosphate ([7]; metabolite sn-glycerol-3-phosphate, S2 Table Metabolomics): -0.08199
succinate/methylmalonic acid ([7]; metabolite succinate/methylmalonic acid, S2 Table Metabolomics, change in metabolite level after compound treatment): 0.009107
uridine ([7]; metabolite uridine, S2 Table Metabolomics, change in metabolite level after compound treatment): 0.08525
xanthosine ([7]; metabolite xanthosine, S2 Table Metabolomics, change in metabolite level after compound treatment): -0.2265
EC50 (P. falciparum): 206 nM
PPI inhibitors of Atg8-Atg3 interaction (Atg8-Atg3): PPI inhibitors

CCN(CC)CCCC(C)Nc1ccnc2cc(Cl)ccc12 (centres unmarked) [Chloroquine, reference compound]
EC50 (P. falciparum 3D7 or K1; [8]): 3 nM
EC50 (P. falciparum 3D7 or K1; [9]): 199 nM
EC50 (P. falciparum Dd2): 209 nM
IC50 (P. falciparum FCR3): 125 nM
Effects on asexual life cycle progression (treatment at ER, LR, T, S; merozoites; mitochondrial integrity) (P. falciparum HB3): LR-X-S-o-o-o
fold change (IC50normal/ IC50hypoxia) (P. falciparum 3D7): 1.6
fold change (IC50reduced/IC50normal) (P. falciparum 3D7): 2.3
IC50 (P. falciparum 3D7; 3D7, read-out: P. falciparum 3D7 IC50 1% O2, 1% O2 hypoxia): 7 nM
IC50 (P. falciparum 3D7; 3D7, read-out: P. falciparum 3D7 IC50 5% O2): 11 nM
IC50 (P. falciparum 3D7; 3D7, read-out: P. falciparum 3D7 IC50 HCO3- (2g/L), standard media): 16 nM
IC50 (P. falciparum 3D7; 3D7, HCO3- reduced media, read-out: P. falciparum 3D7 IC50 HCO3- reduced): 36 nM
EC50 [2]: 77 nM
IC50 ([3]; ref [69], read-out: late stage gametocyte luciferase, no inhibition up to): > 10000 nM

— publication PMC4965013, “Open Source Drug Discovery with the Malaria Box Compound Collection for Neglected Diseases and Beyond” (PLoS Pathogens, 2016)
